Laboratory results from the CheMixHub ionic liquid set.

Experiment: xn = mol fraction of the nth substance listed
Settings: 101 kPa

CCCC[n+]1ccn(C)c1.O=C([O-])C(F)(F)F + CC#N
298.15 K, x2 = 0.2556
Settings | electrical conductivity [S/m] | viscosity [mPa·s]
– | 0.84 | 24.6

CC1COC(=O)O1 (stereo unspecified) + CC[n+]1ccn(C)c1.O=S(=O)([O-])C(F)(F)F
x2 = 0
Settings | viscosity [mPa·s]
293.15 K | 2.94
343.15 K | 1.251

CC[NH+](C)CC.O=S(=O)([O-])C(F)(F)F + O + CC[NH+](C)CC.CS(=O)(=O)[O-]
viscosity [mPa·s]
Settings | x2 = 0.027, x1 = 0.973 | x2 = 0.05, x1 = 0.717 | x2 = 0.07, x1 = 0.498 | x2 = 0.089, x1 = 0.309 | x2 = 0.107, x1 = 0.143 | x2 = 0.114, x1 = 0.069
293.15 K | 53.3 | 78.1 | 101.7 | 116.8 | 125.2 | 128.3
313.15 K | 25.8 | 34 | 40.9 | 44.4 | 45.8 | 46.1
333.15 K | 14.6 | 17.9 | 20.4 | 21.4 | 21.6 | 21.7
353.15 K | 9.18 | 10.7 | 11.74 | 12.07 | 12.03 | 12.06

CC(=O)[O-].CCCC[n+]1ccn(C)c1 + NCCCNCCCN + O
viscosity [mPa·s]
Settings | 298.15 K | 303.15 K | 308.15 K | 313.15 K | 318.15 K | 323.15 K | 328.15 K | 333.15 K
x1 = 0.03479, x2 = 0 | 2.23 | 2.18 | 2.16 | 2.13 | 1.74 | 1.58 | 1.51 | 1.24
x1 = 0.03897, x2 = 0 | 2.35 | 2.29 | 2.25 | 2.22 | 2.11 | 2.07 | 1.91 | 1.86
x1 = 0.04311, x2 = 0 | 2.66 | 2.63 | 2.56 | 2.49 | 2.29 | 2.26 | 2.02 | 1.97

CC[n+]1ccn(C)c1.N#C[N-]C#N + CCO + O
viscosity [mPa·s]
Settings | 298.15 K | 313.15 K | 328.15 K | 343.15 K
x2 = 0.0957, x3 = 0.7595 | 3.15 | 2.21 | – | –
x2 = 0.1156, x3 = 0.8359 | 2.25 | 1.52 | – | –
x2 = 0.1191, x3 = 0.3486 | 6.67 | 4.77 | 3.64 | 2.85
x2 = 0.2007, x3 = 0.7083 | 2.87 | 2 | 1.42 | 1.08
x2 = 0.2484, x3 = 0.6015 | 3.39 | 2.36 | 1.74 | 1.34
x2 = 0.2507, x3 = 0.6986 | 2.65 | 1.76 | 1.25 | 0.94
x2 = 0.2881, x3 = 0.404 | 4.63 | 3.33 | 2.52 | 2.02
x2 = 0.379, x3 = 0.1385 | 5.89 | 4.31 | 3.3 | 2.63
x2 = 0.4202, x3 = 0.3032 | 4 | 2.92 | 2.23 | 1.77
x2 = 0.4889, x3 = 0.4093 | 2.77 | 1.95 | – | –
x2 = 0.6949, x3 = 0.2046 | 2.27 | – | – | –

O + CCCCCCCCCCCCCC[n+]1ccccc1.O=C([O-])C(O)c1ccccc1 + C[C@H](N)C(=O)O
x2 = 0, x3 = 0
Settings | electrical conductivity [S/m]
293.15 K | 0.00012
298.15 K | 0.00015
303.15 K | 0.00016
308.15 K | 0.00017
313.15 K | 0.00019

CC[n+]1ccn(C)c1.N#C[N-]C#N + CC[n+]1ccn(C)c1.F[B-](F)(F)F
298.1 K
Settings | viscosity [mPa·s]
x2 = 0.0448 | 17.2
x2 = 0.6254 | 27.9
x2 = 0.7856 | 31.4
x2 = 0.9447 | 34.7
